Structures are written as SMILES. Where a name gives a salt, the structure may show the parent alone.

For assay [1], the system named is BLAB/c mouse. As to the kind of experiment: Inhibitory effect on skin swelling response in mouse allergic dermatitis model. It is filed as in vivo. To be noted: IgE anti-DNP sensitized mouse, DNFB-induced; 50 mg/kg orally before the induction; 24 hours after administration. On the procedure:
This method was carried out in accordance with the literature “Inflamm. Res., 47, 506-511 (1998)”.
To each BLAB/c mouse (female, 7 weeks old, JAPAN CHARLES RIVER), mouse IgE anti-DNP antibody (2.5 mg/kg, SEIKAGAKU CORPORATION) was intravenously administered to passively sensitize the mouse. Twenty four hours later, 20 μL of 0.38% 2,4-dinitrofluorobenzene (DNFB, SIGMA) dissolved in acetone:olive oil (4:1) was applied to the auricle of the sensitized mouse to induce inflammation. The thickness of the auricle was measured with time till 24 hours after the induction with Digimatic Indicator (Mitutoyo), and the ear swelling ratio was calculated according to the following equation: Ear Swelling Ratio (%)=(A−B)/B×100
A: Thickness of the right auricle after the induction
B: Thickness of the right auricle before the induction
Each test compound was dissolved in phosphate buffered saline and orally administered at a dose of 50 mg/kg before the induction.

For assay [2], the system named is Jurkat cells. As to the kind of experiment: Inhibitory effect on leukocyte functions: adhesion of Jurkat cells to ligand-expressing cells or ligand-immobilized plate. It is filed as cell-based. Conditions: Homo sapiens, 0.5 h, read-out: IC50 (concentration at which the number of adherent cells is reduced by 50%). On the procedure:
Jurkat cells which are a cell line originated from human acute T cell lymphoma were allowed to react with BCECF-AM at 37° C. for 20 minutes to fluorescently label the cells. The fluorescently labelled Jurkat cells were allowed to react with ligand-expressing cells or with a ligand-immobilized plate at 37° C. for 30 minutes. After removing non-adherent cells by washing, 1% NP40 was added to lyse the adherent cells, and fluorescence intensity was measured with Cytofluor 2300 (Millipore). From the obtained fluorescence intensity, the number of adherent cells was calculated. Each test compound was reacted with the Jurkat cells before the beginning of the adhesion reaction. In Table 18, the IC50 of each compound (i.e. the concentration at which the number of adherent cells is reduced by 50%) is shown.

With `COCCOc1ccc(/C=C/CC(NC(=O)c2ccc(CNS(=O)(=O)c3cc(Cl)cc(Cl)c3)cc2)C(=O)[O-])cc1.[Na+]` (centres unmarked) [(XXII), (E)-2-(4-((3,5-dichlorophenylsulfonamide)methyl)benzamide)-5-(4-(2-methoxyethoxy)phenyl)pent-4-enoic acid sodium salt, reference compound], in assay [1], the “Inhibition ratio of the ear swelling (swelling response of the auricle)” value (from here on “Inhibition ratio of the ear swelling”) is listed as 2.3%.

For the compound `COC1(c2ccc(/C=C/CC(NC(=O)c3c(Cl)cccc3Cl)C(=O)O)cc2)CCOCC1` (centres unmarked) [Example 4, (E)-2-(2,6-Dichlorobenzamido)-5-[4-(4-methoxytetrahydropyran-4-yl)-phenyl]pent-4-enoic acid], in assay [1], the “Inhibition ratio of the ear swelling” value was determined as 79.8%.

As to `CCOC1(c2ccc(/C=C/CC(NC(=O)c3c(Cl)cccc3Cl)C(=O)O)cc2)CCOCC1` (centres unmarked) [Example 6, (E)-2-(2,6-Dichlorobenzamido)-5-[4-(4-ethoxytetrahydropyran-4-yl)-phenyl]pent-4-enoic acid], the “Inhibition ratio of the ear swelling” value in assay [1] turned out to be 91.2%.

Consider `CN(c1ccc(/C=C/CC(NC(=O)c2c(Cl)cccc2Cl)C(=O)O)cc1)c1ncccn1` (centres unmarked) [Example 22, (E)-2-(2,6-Dichlorobenzamido)-5-[4-(methyl-pyrimidin-2-ylamino)phenyl]pent-4-enoic acid], for which, in assay [1], the “Inhibition ratio of the ear swelling” value turned out to be 84.7%.

With `CC(C)N(c1ccc(/C=C/CC(NC(=O)c2c(Cl)cccc2Cl)C(=O)O)cc1)c1ncccn1` (centres unmarked) [Example 28, (E)-2-(2,6-Dichlorobenzamido)-5-[4-(isopropyl-pyrimidin-2-ylamino)phenyl]pent-4-enoic acid], in assay [1], the “Inhibition ratio of the ear swelling” value turned out to be 98.5%.

In the case of `CCCCN(c1ccc(/C=C/CC(NC(=O)c2c(Cl)cccc2Cl)C(=O)O)cc1)c1ncccn1` (centres unmarked) [Example 37, (E)-5-(4-Butyl-pyrimidin-2-yl-amino)-phenyl]-2-(2,6-dichlorobenzamido)-pent-4-enoic acid sodium salt], in assay [2], the IC50 came out at 0.16 µM.

As for `O=C(NC(C/C=C/c1ccc(N(CC2CC2)c2ncccn2)cc1)C(=O)O)c1c(Cl)cccc1Cl` (centres unmarked) [Example 53, (E)-5-[4-(Cyclopropylmethyl-pyrimidin-2-ylamino)phenyl]-2-(2,6-dichlorobenzamido)pent-4-enoic acid sodium salt], the IC50 in assay [2] is 0.12 µM.

In the case of `CC(C)CN(c1ccc(/C=C/CC(NC(=O)c2c(Cl)cccc2Cl)C(=O)O)cc1)c1ncccn1` (centres unmarked) [Example 55, (E)-2-(2,6-Dichlorobenzamido)-5-[4-(isobutyl-pyrimidin-2-ylamino)phenyl]pent-4-enoic acid sodium salt], the IC50 in assay [2] worked out at 0.42 µM.

For the compound `COC1(c2ccc(/C=C/C[C@H](NC(=O)c3c(Cl)cccc3Cl)C(=O)O)cc2)CCOCC1` [Example 77, (S,E)-2-(2,6-Dichlorobenzamido)-5-[4-(4-methoxytetrahydropyran-4-yl)-phenyl]pent-4-enoic acid], the “Inhibition ratio of the ear swelling” value in assay [1] was 85.8%.

Regarding `COC1(c2ccc(/C=C/C[C@H](NC(=O)c3c(Cl)cccc3Cl)C(=O)[O-])cc2)CCOCC1.[Na+]` [Example 78, (S,E)-2-(2,6-Dichlorobenzamido)-5-[4-(4-methoxytetrahydropyran-4-yl)-phenyl]pent-4-enoic acid sodium salt], the “Inhibition ratio of the ear swelling” value in assay [1] stood at 62.5%.

Consider `CN(c1ccc(/C=C/C[C@H](NC(=O)c2c(Cl)cccc2Cl)C(=O)O)cc1)c1ncccn1` [Example 80, (S,E)-2-(2,6-Dichlorobenzamido)-5-[4-(methyl-pyrimidin-2-ylamino)phenyl]pent-4-enoic acid], for which the “Inhibition ratio of the ear swelling” value in assay [1] is given as 86.3%.

With `CN(c1ccc(/C=C/C[C@H](NC(=O)c2c(Cl)cccc2Cl)C(=O)[O-])cc1)c1ncccn1.[Na+]` [Example 81, (S,E)-2-(2,6-Dichlorobenzamido)-5-[4-(methyl-pyrimidin-2-ylamino)phenyl]pent-4-enoic acid sodium salt], in assay [1], the “Inhibition ratio of the ear swelling” value was 97.9%.

Turning to `CC(C)N(c1ccc(/C=C/C[C@H](NC(=O)c2c(Cl)cccc2Cl)C(=O)O)cc1)c1ncccn1` [Example 83, (S,E)-2-(2,6-Dichlorobenzamido)-5-[4-(isopropyl-pyrimidin-2-ylamino)phenyl]pent-4-enoic acid], in assay [1], the “Inhibition ratio of the ear swelling” value is on record as 57.4%.

For the compound `CC(C)N(c1ccc(/C=C/C[C@H](NC(=O)c2c(Cl)cccc2Cl)C(=O)[O-])cc1)c1ncccn1.[Na+]` [Example 84, (S,E)-2-(2,6-Dichlorobenzamido)-5-[4-(isopropyl-pyrimidin-2-ylamino)phenyl]pent-4-enoic acid sodium salt], the “Inhibition ratio of the ear swelling” value in assay [1] was 66.9%.

For the origin of these results see patent US9162988B2, “Therapeutic or prophylactic agent for allergic dermatitis” (Toray Industries, Inc., priority 2007, dated 2015).
